From ChEMBL document CHEMBL5344475, “Indole-containing pharmaceuticals: targets, pharmacological activities, and SAR studies” (RSC Med Chem, 2024)
pKi: −log10 of the molar value.

Assays:
[1] = Oral bioavailability in human; assay type: ADME, organism-based; settings: in vivo
[2] = Volume of distribution in human at 80 to 100 mg; assay type: ADME; settings: dose 80-100 mg
Half life in human = settings: in vivo
[3] = Half life in human plasma; assay type: ADME, cell-free
[4] = Volume of distribution in human; assay type: ADME
[5] = biological target: 5-hydroxytryptamine receptor 2B (Homo sapiens, UniProt P41595); assay: Binding affinity to 5-HT2B receptor (unknown origin) assessed as inhibition constant
5-hydroxytryptamine receptor 2B, sequence (P41595 whole entry): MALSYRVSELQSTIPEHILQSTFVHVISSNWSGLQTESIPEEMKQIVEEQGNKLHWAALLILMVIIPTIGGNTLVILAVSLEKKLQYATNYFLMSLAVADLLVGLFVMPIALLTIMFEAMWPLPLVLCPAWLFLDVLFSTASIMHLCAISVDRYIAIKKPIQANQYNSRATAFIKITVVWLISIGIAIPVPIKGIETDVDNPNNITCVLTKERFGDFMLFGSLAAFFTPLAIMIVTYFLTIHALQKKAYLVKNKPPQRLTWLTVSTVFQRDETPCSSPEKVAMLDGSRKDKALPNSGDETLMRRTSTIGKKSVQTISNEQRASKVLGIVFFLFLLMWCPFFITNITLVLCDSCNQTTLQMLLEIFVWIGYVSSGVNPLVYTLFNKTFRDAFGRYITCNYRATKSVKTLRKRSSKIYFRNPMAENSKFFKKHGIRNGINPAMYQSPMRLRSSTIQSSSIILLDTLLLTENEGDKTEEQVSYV

[6] = Elimination half life in human; assay type: ADME; settings: read-out: beta t1/2 (converted)
[7] = Apparent oral clearance in human
[8] = Oral bioavailability in mouse; assay type: ADME, organism-based; settings: in vivo
[9] = Tmax in human; assay type: ADME
[10] = Plasma clearance in iv dosed human
[11] = Terminal half life in human at 10 mg/kg, iv; settings: in vivo, read-out: beta t1/2 (converted)
[12] = Volume of distribution at steady state in iv dosed human; settings: in vivo, read-out: Vdss
[13] = Apparent volume of distribution in Sprague-Dawley rat at 1 mg/kg, iv; assay type: ADME, organism-based; settings: in vivo
[14] = Effective half life in human; settings: in vivo, read-out: t1/2eff (converted)
[15] = Tmax in human plasma; assay type: ADME, cell-free
[16] = Cmax in human at 4 mg, po; assay type: ADME; set-up: dose 4 mg, route po; settings: in vivo
[17] = Terminal half life in human; assay type: ADME; settings: read-out: beta t1/2 (converted)
[18] = Cmax in human plasma; assay type: ADME, cell-free
[19] = AUC (0 to 24 hrs) in human at 40 mg, po by LC-MS/MS analysis; settings: in vivo
[20] = Terminal half life in iv dosed mouse; assay type: ADME, organism-based; settings: in vivo, read-out: beta t1/2 (converted)
[21] = Blood clearance in Wistar rat at 0.3 mg/kg, iv; assay type: ADME, organism-based
[22] = Plasma clearance in iv dosed human; settings: in vivo
[23] = Volume of distribution at steady state in human; settings: in vivo, read-out: Vdss
[24] = Initial half life in iv dosed mouse; settings: in vivo, read-out: beta t1/2
[25] = Apparent oral clearance in human at 100 mg, po by LC-MS/MS analysis; assay type: ADME, organism-based; settings: in vivo
[26] = biological target: 5-hydroxytryptamine receptor 1D (Homo sapiens, UniProt P28221); assay: Binding affinity to 5-HT1DR (unknown origin) assessed as inhibition constant
5-hydroxytryptamine receptor 1D, sequence (P28221 whole entry): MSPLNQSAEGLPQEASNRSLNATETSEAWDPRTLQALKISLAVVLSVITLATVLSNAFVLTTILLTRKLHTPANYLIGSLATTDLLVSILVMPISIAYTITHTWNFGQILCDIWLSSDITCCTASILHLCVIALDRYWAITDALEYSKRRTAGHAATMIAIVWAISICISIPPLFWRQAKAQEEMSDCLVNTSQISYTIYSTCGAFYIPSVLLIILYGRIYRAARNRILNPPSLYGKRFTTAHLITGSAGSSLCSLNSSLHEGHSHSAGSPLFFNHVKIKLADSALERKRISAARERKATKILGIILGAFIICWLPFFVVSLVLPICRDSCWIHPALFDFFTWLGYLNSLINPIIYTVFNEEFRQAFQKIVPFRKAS

[27] = biological target: 5-hydroxytryptamine receptor 1B (Homo sapiens, UniProt P28222); assay: Binding affinity to 5-HT1B receptor (unknown origin) assessed as inhibition constant
5-hydroxytryptamine receptor 1B, sequence (P28222 whole entry): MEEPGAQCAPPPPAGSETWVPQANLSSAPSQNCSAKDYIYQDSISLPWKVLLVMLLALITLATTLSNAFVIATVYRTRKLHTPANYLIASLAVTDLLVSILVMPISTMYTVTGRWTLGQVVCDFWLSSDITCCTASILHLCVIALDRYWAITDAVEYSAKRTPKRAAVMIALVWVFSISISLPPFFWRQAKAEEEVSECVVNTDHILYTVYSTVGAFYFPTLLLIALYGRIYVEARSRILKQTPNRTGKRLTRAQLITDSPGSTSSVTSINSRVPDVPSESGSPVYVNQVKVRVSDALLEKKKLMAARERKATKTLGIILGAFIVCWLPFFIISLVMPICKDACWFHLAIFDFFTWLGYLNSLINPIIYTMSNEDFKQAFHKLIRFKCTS

Question: With `CC[C@@H](CO)NC(=O)[C@@H]1C=C2c3cccc4[nH]cc(c34)C[C@H]2N(C)C1` [METHYLERGONOVINE] as the molecule, how does the bioavailability [1] read?
Answer: The bioavailability was 40%.

Question: What about the Vd [2] of the same molecule?
Answer: The Vd was 2.4 L/kg.

Question: And the half-life (Half life in human)?
Answer: The half-life was 2.5 h.

Question: Which results are given for `CO[C@@H]1[C@H](N(C)C(=O)c2ccccc2)C[C@H]2O[C@]1(C)n1c3ccccc3c3c4c(c5c6ccccc6n2c5c31)C(=O)NC4` [MIDOSTAURIN]?
Answer: half-life [3]: 21 h; Vd [4]: 95.2 L

Question: With `Cc1nccn1CC1CCc2c(c3ccccc3n2C)C1=O` (stereo unspecified) [ONDANSETRON] as the molecule, how does the pKi [5] read?
Answer: The pKi was 8.60.

Question: What about the bioavailability [1] of the same molecule?
Answer: Its bioavailability is 56%.

Question: What about the half-life [6] of the same molecule?
Answer: The half-life was 3.1 h.

Question: What does the source list for `Cc1[nH]c2ccccc2c1CCNCc1ccc(/C=C/C(=O)NO)cc1` [PANOBINOSTAT]?
Answer: half-life [3]: 37 h; CL/F [7]: 2670 mL/min

Question: With `CCCN1C[C@H](CSC)C[C@@H]2c3cccc4[nH]cc(c34)C[C@H]21` [PERGOLIDE] as the molecule, how does the bioavailability [8] read?
Answer: The bioavailability was 55%.

Question: What does the source list for `CC(C)NCC(O)COc1cccc2[nH]ccc12` (stereo unspecified) [PINDOLOL]?
Answer: Tmax [9]: 1 h; Vd [2]: 2 L/kg; half-life (Half life in human): 3 h

Question: Which bioavailability [1] does the source give for `O=C1NCCN1CCN1CCC(c2cn(-c3ccc(F)cc3)c3ccc(Cl)cc23)CC1` [SERTINDOLE] here?
Answer: The bioavailability was 75%.

Question: What about the Vd [2] of the same molecule?
Answer: Its Vd is 20 L/kg.

Question: And the half-life (Half life in human)?
Answer: The half-life was 53 h.

Question: Which clearance [10] does the source give for `CCCCCNC(=N)N/N=C/c1c[nH]c2ccc(OC)cc12` [TEGASEROD] here?
Answer: The clearance was 1280 mL/min.

Question: And the half-life [11]?
Answer: The half-life was 11 h.

Question: And the Vd [12]?
Answer: Its Vd is 368 L.

Question: Which Vd/F [13] does the source give for `CC(C)(CO)c1cc2cc(NC(=O)C3(c4ccc5c(c4)OC(F)(F)O5)CC3)c(F)cc2n1C[C@@H](O)CO` [TEZACAFTOR] here?
Answer: Its Vd/F is 82 L.

Question: What about the half-life [14] of the same molecule?
Answer: The half-life was 25.1 h.

Question: Which results are given for `CN1[C@@H]2CC[C@H]1C[C@@H](OC(=O)c1c[nH]c3ccccc13)C2` [TROPISETRON]?
Answer: bioavailability [1]: 60%; half-life [3]: 5 h

Question: Which results are given for `CCOC(=O)c1c(CSc2ccccc2)n(C)c2cc(Br)c(O)c(CN(C)C)c12` [UMIFENOVIR]?
Answer: Tmax [15]: 0.65 h; half-life [3]: 17 h; Cmax [16]: 0.415 µg/mL

Question: Which results are given for `N#Cc1ccc2[nH]cc(CCCCN3CCN(c4ccc5oc(C(N)=O)cc5c4)CC3)c2c1` [VILAZODONE]?
Answer: half-life [17]: 25 h; Cmax [18]: 0.156 µg/mL; AUC [19]: 1.65 µg·h/mL

Question: For `CC[C@]1(O)C[C@@H]2CN(CCc3c([nH]c4ccccc34)[C@@](C(=O)OC)(c3cc4c(cc3OC)N(C)[C@H]3[C@@](O)(C(=O)OC)[C@H](OC(C)=O)[C@]5(CC)C=CCN6CC[C@]43[C@@H]65)C2)C1` [VINBLASTINE], which half-life [20] is on record?
Answer: Its half-life is 1.6 h.

Question: For `CC[C@]12C=CCN3CC[C@@]4(c5cc([C@@]6(C(=O)OC)C[C@@H]7C[C@@H](C(C)(F)F)CN(Cc8c6[nH]c6ccccc86)C7)c(OC)cc5N(C)[C@H]4[C@@](O)(C(=O)OC)[C@@H]1OC(C)=O)[C@@H]32` [VINFLUNINE], which clearance [21] is on record?
Answer: The clearance was 667 mL/min.

Question: Which clearance [22] does the source give for `CCC1=C[C@@H]2CN(C1)Cc1c([nH]c3ccccc13)[C@@](C(=O)OC)(c1cc3c(cc1OC)N(C)[C@H]1[C@@](O)(C(=O)OC)[C@H](OC(C)=O)[C@]4(CC)C=CCN5CC[C@]31[C@@H]54)C2` [VINORELBINE] here?
Answer: Its clearance is 0.97 L/h/kg.

Question: What about the half-life [11] of the same molecule?
Answer: The half-life was 27.7 h.

Question: And the Vd [23]?
Answer: Its Vd is 25.4 L/kg.

Question: What about the half-life [20] of the same molecule?
Answer: Its half-life is 24.8 h.

Question: Which results are given for `COC(=O)[C@@H]1[C@H]2C[C@H]3c4[nH]c5ccccc5c4CCN3C[C@@H]2CC[C@@H]1O` [YOHIMBINE]?
Answer: half-life [6]: < 1 h; half-life [24]: 3.7 min

Question: With `COc1cc(C(=O)NS(=O)(=O)c2ccccc2C)ccc1Cc1cn(C)c2ccc(NC(=O)OC3CCCC3)cc12` [ZAFIRLUKAST] as the molecule, how does the CL/F [25] read?
Answer: Its CL/F is 333 mL/min.

Question: With `CN(C)CCc1c[nH]c2ccc(C[C@H]3COC(=O)N3)cc12` [ZOLMITRIPTAN] as the molecule, how does the pKi [26] read?
Answer: Its pKi is 9.40.

Question: What about the pKi [27] of the same molecule?
Answer: Its pKi is 9.40.
